Structures can show the parent of a compound that is named as a salt.
Columns and labels:
[1] = test system: PC12 cells; assay: Veratridine-evoked [^3H]noradrenaline release from PC12 cells; assay type: cell-based, rat; settings: for effect on veratridine-evoked [^3H]noradrenaline release (concentration-response): in the absence of rauwolscine / interacting drugs; for activity at 100 µM: PC-12, read-out: Veratridine (1 mM)-induced [^3H]noradrenaline release (% of controls without drug); for effect on veratridine-induced [^3H]noradrenaline release (concentration-response): in the presence of 3 μM rauwolscine; for effect on veratridine-evoked [^3H]noradrenaline release, given alone: CB1 antagonist given alone; for effect on evoked tritium overflow: 3 μM rauwolscine
Description: PC12 cells were cultured in suspension culture as described by Harder and Bönisch (1984). […] For the experiments on intact cells, PC12 cells were cultured in a humidified CO2-incubator (at 37° C. and in the presence of 9% CO2) on dishes (60 mm, Nunc) coated with polyornithine 0.1 g/l (in 0.15 M boric acid, and 67 mM NaOH, adjusted with HCl to pH 8.4). Each culture dish contained about 10^7 cells corresponding to about 1 mg cell protein.
To load the cells with labelled noradrenaline, 10 nM [^3H]noradrenaline was added to the culture medium (3 ml/dish) and the cells were incubated for 3 h in a CO2-incubator (37° C.). To minimize oxidation of the catecholamine, L(+)-ascorbic acid (1 mM) was present in all solutions. The cells were then washed twice with culture medium and incubated for 60 min with [^3H]noradrenaline-free culture medium (with a change of the medium after 30 min). Subsequently the cell dishes were transferred to a water bath of 37° C. (onset of the experiment) and the cells were then incubated until the end of the experiment with prewarmed (37° C.) [^3H]noradrenaline-free HEPES-buffered salt solution (composition in mM unless stated otherwise: NaCl 125, KCl 15, KH2PO4 1.2, CaCl2 2.6, MgSO4 1.2, HEPES-NaOH (pH 7.4) 25, D(+)-glucose 5.6, L(+)-ascorbic acid 1.0) with a change of the medium every 5 min (total incubation time in the HEPES buffer: 85 min). To minimize loss of cells during washing und to inhibit the neuronal noradrenaline transport system the solution contained 1 g/l bovine serum albumin and 1 μM desipramine, respectively (Friedrich and Bönisch, 1986). The agonist and/or antagonist under study was added to the HEPES buffer at the onset of the exposure to this buffer. Sixty min after onset of incubation with the buffer 1 mM veratridine was added for 5 min. In a few experiments, the HEPES-buffered salt solution contained 4.8 instead of 15 mM KCl and stimulation was carried out either by 1 mM veratridine or by increasing the KCl concentration to 15 mM (time schedule identical to the standard procedure). In one series of experiments, culture medium was changed daily (instead of changing it every 3 days as standard condition) and 100 μM clonidine was added to the medium for 72 h. The cells were then washed twice with clonidine-free culture medium (with a change of the medium after 30 min). Subsequently the cell dishes were transferred to a water bath of 37° C. (onset of the experiment) and the cells were then incubated until the end of the experiment with prewarmed (37° C.) [^3H]noradrenaline-free HEPES-buffered salt solution and veratridine was administered 2 h after the end of exposure to clonidine. Basal efflux of tritium was determined in the 5-min period before and in that 20 min after onset of stimulation. Veratridine-evoked tritium overflow was determined in the four 5-min periods after the onset of veratridine application. At the end of the experiment, the cells were solubilized by 0.1% v/v TritonX-100 (in 5 mM Tris-HCl, pH 7.4). The radioactivity of the solubilized cells und of the wash-out samples was determined by liquid scintillation counting.

[2] = biological target: T1, h(edg2) receptor (Homo sapiens, UniProt Q92633); assay: Agonist-induced [^35S]GTPγS binding to membranes from RH7777 cells stably transfected with h(edg2) receptors; assay type: biochemical; settings: for agonist character at the edg2-receptor: increase to the same extent as for the endogenous ligand LPA; for effect on [^35S]GTPγS-binding: nanomolar concentrations, 10 μM rauwolscine, 0.1 μM GDP
T1 construct: expressed in transfected cells; host or cells: RH7777 cells (rat hepatoma cells), membranes
Description: RH7777 cells (rat hepatoma cells) stably transfected with cDNA encoding the h(edg2) receptor and PC12 cells were homogenized in ice-cold 20 mM HEPES buffer containing […] EDTA (pH 7.4 at RT) with an ultraturrax homgenizer and centrifuged at 48,000 g, 4° C. for 15 min. The pellet was resuspended in ice-cold 20 mM HEPES buffer containing 0.1 mM EDTA (pH 7.4 at RT) and recentrifuged at 48,000 g, 4° C. for 15 min. The final pellet was resuspended in 20 mM HEPES buffer (pH 7.4 at RT).
50 μg Membranes were incubated in 0.5 ml of GTP-binding buffer containing GDP 0.1 μM, rauwolscine 10 μM (in the experiments with membranes from RH7777 cells), [^35S]GTPγs 0.05 nM and indicated test compound (LPA, clonidine or moxonidine diluted in assay buffer containing 1% fatty acid free BSA) for 45 min at 30° C. The incubation was terminated by filtering over GF/B filters with a cell harvester, and the filters were washed once with 5 ml of ice-cold assay buffer. Radioactivity was counted by liquid scintillation spectrometry at an efficiency of >95%.

[3] = test system: α2-adrenoceptors; assay: [^3H]rauwolscine radioligand binding to membranes from undifferentiated PC12 cells; parameters: species or system rat; settings: 16.8 nM radioligand; for [^3H]Rauwolscine binding: n=4
Description: Results are expressed as mean values±SEM. All experiments were carried out in triplicate.

[4] = drug 100 μM, 3 μM rauwolscine present

T1 sequence (Q92633 whole entry): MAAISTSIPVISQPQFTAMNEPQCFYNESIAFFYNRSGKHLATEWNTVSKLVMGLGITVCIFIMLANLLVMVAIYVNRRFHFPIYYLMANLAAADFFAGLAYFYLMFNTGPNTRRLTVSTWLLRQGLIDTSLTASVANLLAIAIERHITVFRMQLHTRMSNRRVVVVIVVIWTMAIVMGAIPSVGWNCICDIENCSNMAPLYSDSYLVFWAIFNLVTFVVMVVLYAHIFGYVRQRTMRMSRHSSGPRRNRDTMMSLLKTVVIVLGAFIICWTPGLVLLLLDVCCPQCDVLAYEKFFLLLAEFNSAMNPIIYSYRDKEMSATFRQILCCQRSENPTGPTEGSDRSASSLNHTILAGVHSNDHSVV

CCCCCCCC/C=C\CCCCCCCC(=O)OC[C@@H](O)COP(=O)(O)O [1-oleoyl-LPA, 1-oleoyl-lysophosphatidic acid]
effect on evoked [^3H]noradrenaline release ([1]; 10 μM 1-oleoyl-LPA, cells pretreated with 100 μM clonidine for 72 h): did not inhibit but tended to increase
effect on veratridine-evoked [^3H]noradrenaline release (concentration-response) [1]: concentration-dependently inhibited

CCCCCCCCCCCCCCCC(=O)OCC(O)COP(=O)(O)O (centres unmarked) [1-palmitoyl-LPA]
effect on evoked [^3H]noradrenaline release ([1]; 10 μM 1-palmitoyl-LPA): did not alter
effect on evoked [^3H]noradrenaline release ([1]; up to 1 μM 1-palmitoyl-LPA): concentration-dependently increased

N=C(N)NN1Cc2c(Cl)ccc(Cl)c2C1 [Aganodine, aganodine]
effect on veratridine-induced [^3H]noradrenaline release at 100 μM (in words) [1, 4]: inhibited
Veratridine (1 mM)-induced [^3H]noradrenaline release (% of controls without drug) ([1]; drug 100 μM, 15 mM KCl, 1 μM desipramine and 3 μM rauwolscine throughout, means ± SEM of 6-11 experiments): 32.3 ± 5.7%

N=C(N)NCCCCN.O=S(=O)(O)O [Agmatine, agmatine sulfate]
activity at 100 µM ([1]; Rattus norvegicus): 76.4 ± 9.5%
effect on veratridine-induced [^3H]noradrenaline release at 100 μM (in words) [1, 4]: inhibited
effect on veratridine-induced [^3H]noradrenaline release (concentration-response) [1]: concentration-dependently inhibited

CCCCC/C=C\C/C=C\C/C=C\C/C=C\CCCC(=O)NCCO [Anandamide, anandamide]
effect on veratridine-evoked [^3H]noradrenaline release ([1]; 1 μM anandamide): did not affect
effect on veratridine-evoked [^3H]noradrenaline release ([1]; 100 μM anandamide): enhanced

Cl.Clc1cccc2c1CN(NC1=NCCN1)C2 [BDF 6143, 4-chloro-2-(2-imidazolin-2-ylamino)-isoindoline hydrochloride]
activity at 100 µM ([1]; Rattus norvegicus): 74.7 ± 11.1%
effect on veratridine-induced [^3H]noradrenaline release at 100 μM (in words) [1, 4]: inhibited
effect on veratridine-induced [^3H]noradrenaline release (concentration-response) [1]: concentration-dependently inhibited

c1ccc(C2CC2)c(OCC2=NCCN2)c1 [Cirazoline, cirazoline hydrochloride]
activity at 100 µM ([1]; Rattus norvegicus): 17.4 ± 7.5%
effect on veratridine-induced [^3H]noradrenaline release at 100 μM (in words) [1, 4]: inhibited

Clc1cccc(Cl)c1N=C1NCCN1 [Clonidine, clonidine hydrochloride]
effect on [^3H]noradrenaline release ([1]; 10 μM clonidine in the presence of 10 μM SR141716A): acted facilitatory
evoked [^3H]noradrenaline release (% of veratridine-evoked release in the respective control experiments) ([1]; 100 μM clonidine, cells pretreated with 100 μM clonidine for 72 h, n=6): 171±24%
activity at 100 µM ([1]; Rattus norvegicus): 25.6 ± 12.2%
effect on veratridine-induced [^3H]noradrenaline release at 100 μM (in words) [1, 4]: inhibited
effect on veratridine-evoked [^3H]noradrenaline release (concentration-response) [1]: concentration-dependently inhibited
effect on veratridine-induced [^3H]noradrenaline release (concentration-response) [1]: concentration-dependently inhibited
agonist character at the edg2-receptor [2]: full agonists
effect on [^35S]GTPγS-binding [2]: provoke an increase

Cc1ccccc1NC(=N)Nc1ccccc1C [DTG, 1,3-di(2-tolyl)guanidine]
activity at 100 µM ([1]; Rattus norvegicus): 63.3 ± 7%
effect on veratridine-induced [^3H]noradrenaline release at 100 μM (in words) [1, 4]: inhibited

COc1ccc(-c2sc3cc(OC)ccc3c2C(=O)c2ccc(C#N)cc2)cc1 [LY320135, [6-methoxy-2-(4-methoxyphenyl)benzo[b]thien-3-yl][4-cyanophenyl]methanone]
interaction with the inhibition produced by 100 μM clonidine ([1]; 10 μM LY320135): counteracted
evoked [^3H]noradrenaline release (% of evoked release in the respective control experiments) ([1]; 10 μM LY320135 together with 10 μM 1-oleoyl-LPA, n=6): 198.8%±39.9%
effect on veratridine-evoked [^3H]noradrenaline release, given alone [1]: did not affect

COc1nc(C)nc(Cl)c1N=C1NCCN1 [Moxonidine, moxonidine]
activity at 100 µM ([1]; Rattus norvegicus): 81.6 ± 5.2%
effect on veratridine-induced [^3H]noradrenaline release ([1]; up to a concentration of 1000 μM, 3 μM rauwolscine present): failed to modify
agonist character at the edg2-receptor [2]: full agonists
effect on [^35S]GTPγS-binding [2]: provoke an increase

NC[C@H](O)c1ccc(O)c(O)c1 [Noradrenaline, noradrenaline base]
activity at 100 µM ([1]; Rattus norvegicus): 93 ± 11.5%
effect on veratridine-induced [^3H]noradrenaline release at 100 μM (in words) [1, 4]: failed to modify

COC(=O)[C@H]1[C@H]2C[C@H]3c4[nH]c5ccccc5c4CCN3C[C@H]2CC[C@@H]1O [Rauwolscine, Rauwolscine hydrochloride]
effect on the concentration-response curve of clonidine ([1]; 3 μM rauwolscine versus absence of rauwolscine): did not substantially differ
effect on the concentration-response curve of clonidine ([1]; 30 μM rauwolscine): shifted to the right
interaction with the inhibitory effect of 10 μM 1-oleoyl-LPA ([1]; 30 μM rauwolscine): counteracted
effect on veratridine-induced [^3H]noradrenaline release, given alone ([1]; rauwolscine 3 μM alone, n=6): did not significantly modify

CCCCCCCCCCCCC/C=C/[C@@H](O)[C@@H](N)COP(=O)(O)O [S1P, sphingosine-1-phosphate]
evoked [^3H]noradrenaline release (% of veratridine-evoked release in the respective control experiments) ([1]; 10 μM S1P, n=6): 101.7%±31.3%

Cc1c(C(=O)NN2CCCCC2)nn(-c2ccc(Cl)cc2Cl)c1-c1ccc(Cl)cc1 [SR141716A, N-[piperidin-1-yl]-5-[4-chlorophenyl]-1-[2,4-dichlorophenyl]-4-methyl-1H-pyrazole-3-carboxamide]
interaction with the inhibition produced by 100 μM clonidine ([1]; 1 μM SR141716A): counteracted
interaction with the inhibitory effect of 10 μM 1-oleoyl-LPA ([1]; 1 μM SR141716A): counteracted
interaction with the inhibitory effect of 0.3 μM CP55,940 ([1]; 1 μM SR141716A + 3 μM rauwolscine): antagonized
effect on the concentration-response curve of clonidine ([1]; 10 μM SR141716A): shifted to the right
effect on veratridine-evoked [^3H]noradrenaline release, given alone [1]: did not affect

CS(=O)(=O)O.Cc1c(C(=O)c2cccc3ccccc23)c2cccc3c2n1[C@H](CN1CCOCC1)CO3 [WIN55,212-2, R(+)-[2,3-dihydro-5-methyl-3-[(morpholinyl)methyl]pyrrolo[1,2,3-de]-1,4-benzoxazin-yl)(1-naphthalenyl)methanone mesylate]
effect on veratridine-induced [^3H]noradrenaline release (concentration-response) [1]: concentration-dependently inhibited

Cc1c(C(=O)c2cccc3ccccc23)c2cccc3c2n1[C@@H](CN1CCOCC1)CO3 [WIN55,212-3]
effect on veratridine-induced [^3H]noradrenaline release at 100 μM (in words) [1, 4]: did not

COC(=O)[C@H]1[C@H]2C[C@H]3c4[nH]c5ccccc5c4CCN3C[C@H]2CC[C@@H]1O [[^3H]Rauwolscine, [O-methyl-3H]rauwolscine]
[^3H]Rauwolscine binding as % of the radioactivity added to each assay ([3]; absence of 10 μM rauwolscine): 0.19±0.01%
[^3H]Rauwolscine binding ([3]; absence of 10 μM rauwolscine): 134.0±7.1 fmol/mg protein
[^3H]Rauwolscine binding as % of the radioactivity added to each assay ([3]; presence of 10 μM rauwolscine): 0.19±0.01%
[^3H]Rauwolscine binding ([3]; presence of 10 μM rauwolscine): 132.8±7.0 fmol/mg protein

COc1cc2c(c(OC)c1OC)-c1ccc(OC)c(=O)cc1[C@@H](NC(C)=O)CC2 [colchicine]
inhibition at 50 µM ([1]; Rattus norvegicus, PC-12, read-out: inhibition of veratridine (1 mM)-evoked tritium overflow): 56%

[(−)-cis-3-[2-hydroxy-4-(1,1-dimethylheptyl)phenyl]-trans-4-(3-hydroxypropyl)-cyclohexane [CP55,940]
effect on evoked tritium overflow ([1]; 0.3 μM CP55,940): significantly inhibited
effect on evoked tritium overflow ([1]; 1 μM CP55,940): no inhibition
effect on evoked tritium overflow ([1]; 10 μM CP55,940): facilitation

lysophospatidic acid [LPA]
effect on [^35S]GTPγS-binding [2]: provoke an increase

Reference: patent US20050232860A1, “Use of edg-receptor agonists for the treatment of hypertension” (priority 2001, published 2005)
